Assay results from patent publication US20220211792A1, “COMPOSITION CONTAINING NATURAL EXTRACTS FOR ENHANCEMENT OF INNATE IMMUNITY OR ANTIVIRAL USE AGAINST INFLUENZA VIRUS OR CORONA VIRUS” (OKCHUNDANG CO., LTD., priority 2021, published 2022).

B1: IFN-β: mouse IFN-β (1,000 units/ml), positive control (protein, UniProt P01575 22-182, looked up)
Interferon beta: INYKQLQLQERTNIRKCQELLEQLNGKINLTYRADFKIPMEMTEKMQKSYTAFAIQEMLQNVFLVFRNNFSSTGWNETIVVRLLDELHQQTVFLKTVLEEKQEERLTWEMSSTALHLKSYYWRVQRYLKLMKYNSYAWMVVRAEIFRNFLIIRRLTRNFQN

How the values were obtained:
[1] = tested on: influenza virus A/PR/8/34-GFP; assay type: cell-based
IAV = assay type: cell-based, influenza A virus
[2] = tested on: influenza virus (A/PR/8/34-GFP); assay type: cell-based

Molecule | level of GFP compared with untreated cells [1] | levels of IAV proteins compared with untreated cells (IAV) | GFP (influenza virus infection rate) [2]
CC(C)=CCC[C@](C)(O[C@@H]1O[C@H](CO)[C@@H](O)[C@H](O)[C@H]1O)[C@H]1CC[C@]2(C)[C@@H]1[C@H](O)C[C@@H]1[C@@]3(C)CC[C@H](O[C@@H]4O[C@H](CO)[C@@H](O)[C@H](O)[C@H]4O[C@@H]4O[C@H](CO)[C@@H](O)[C@H](O)[C@H]4O)C(C)(C)[C@@H]3CC[C@]12C [ginsenoside Rd] | lower | suppressed | 
O=C(/C=C/c1ccc(O)c(O)c1)O[C@@H]1C[C@](O)(C(=O)O)C[C@@H](O)[C@H]1O [chlorogenic acid] | lower | suppressed | 
B1 |  |  | 1.45
